The results in this text go back to ChEMBL document CHEMBL3108765, “2-Aminonicotinic acid 1-oxides are chemically stable inhibitors of quinolinic acid synthesis in the mammalian brain: a step toward new antiexcitotoxic agents” (J Med Chem, 2013).

The target of data set [1] is T1, 3-hydroxyanthranilate 3,4-dioxygenase (Homo sapiens) (UniProt P46952).
T1 sequence (whole entry): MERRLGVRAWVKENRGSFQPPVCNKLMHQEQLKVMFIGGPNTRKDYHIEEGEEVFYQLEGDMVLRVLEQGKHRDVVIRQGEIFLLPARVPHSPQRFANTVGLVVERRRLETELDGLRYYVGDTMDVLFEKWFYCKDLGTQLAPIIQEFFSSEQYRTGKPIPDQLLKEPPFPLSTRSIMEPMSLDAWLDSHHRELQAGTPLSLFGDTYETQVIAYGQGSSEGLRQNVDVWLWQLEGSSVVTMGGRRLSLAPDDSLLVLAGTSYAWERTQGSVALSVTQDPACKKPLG
Put plainly: Inhibition of 3-HAO in human brain homogenates using [1-14C]-3-HANA as substrate assessed as [14C]-QUIN production at 10 uM after 1 hr by liquid scintillation spectrometric analysis relative to control. Type of data set: tissue-based.

Data set [2] concerns the target T1, 3-hydroxyanthranilate 3,4-dioxygenase (Homo sapiens). Briefly: Inhibition of 3-HAO in human brain homogenates using [1-14C]-3-HANA as substrate assessed as [14C]-QUIN production at 1 mM after 1 hr by liquid scintillation spectrometric analysis relative to control. Type of data set: tissue-based.
For data set [3] the target is unchanged. Put plainly: Inhibition of 3-HAO in human brain homogenates using [1-14C]-3-HANA as substrate assessed as [14C]-QUIN production at 100 uM after 1 hr by liquid scintillation spectrometric analysis relative to control. Type of data set: tissue-based.
Data set [4] deals with T2, 3-hydroxyanthranilate 3,4-dioxygenase (Rattus norvegicus) (UniProt P46953).
T2 sequence (whole entry): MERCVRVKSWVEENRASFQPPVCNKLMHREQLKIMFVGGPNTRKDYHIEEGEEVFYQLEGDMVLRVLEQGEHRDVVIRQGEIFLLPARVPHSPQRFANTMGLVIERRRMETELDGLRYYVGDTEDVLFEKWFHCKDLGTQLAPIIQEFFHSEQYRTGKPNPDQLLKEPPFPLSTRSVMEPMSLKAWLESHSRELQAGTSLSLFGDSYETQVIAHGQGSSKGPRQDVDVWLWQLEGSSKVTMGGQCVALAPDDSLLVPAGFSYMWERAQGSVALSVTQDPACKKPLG
Put plainly: Inhibition of 3-HAO in Sprague-Dawley rat brain homogenates using [1-14C]-3-HANA as substrate assessed as [14C]-QUIN production at 1 mM after 1 hr by liquid scintillation spectrometric analysis relative to control. Type of data set: tissue-based.

The target in data set [5] is T2, 3-hydroxyanthranilate 3,4-dioxygenase (Rattus norvegicus). Put plainly: Inhibition of 3-HAO in Sprague-Dawley rat brain homogenates using [1-14C]-3-HANA as substrate assessed as [14C]-QUIN production at 100 uM after 1 hr by liquid scintillation spectrometric analysis relative to control. Type of data set: tissue-based.
Data set [6] shares this target. Put plainly: Inhibition of 3-HAO in Sprague-Dawley rat brain homogenates using [1-14C]-3-HANA as substrate assessed as [14C]-QUIN production at 10 uM after 1 hr by liquid scintillation spectrometric analysis relative to control. In kind it is tissue-based.
Data set [7] in a line: Chemical stability in PBS buffer assessed as auto-oxidative degradation after 24 hrs by HPLC analysis. In kind it is physicochemical. The note with it: read-out: Drug degradation.
Data set [8] can be described thus: Drug degradation in PBS buffer assessed as parent compound level at 100 uM after 24 hrs by HPLC/UV-vis spectroscopic analysis. In kind it is physicochemical. As to conditions: read-out: Stability.
Data set [9] is described as follows: Drug degradation in PBS buffer assessed as parent compound level at 10 uM after 24 hrs by HPLC/UV-vis spectroscopic analysis. As to conditions: read-out: Stability. In kind it is physicochemical.
For data set [10], the target named is T3, 3-hydroxyanthranilate 3,4-dioxygenase (Homo sapiens, UniProt P46952).
T3 sequence (P46952 whole entry): T1 sequence (whole entry)
Briefly: Inhibition of 3-HAO in human brain homogenates using [1-14C]-3-HANA as substrate assessed as [14C]-QUIN production after 1 hr by liquid scintillation spectrometric analysis. In kind it is tissue-based.

The test system of data set [11] is Rattus norvegicus. Put plainly: In vivo inhibition of 3-HAO in excitotoxically lesioned Sprague-Dawley rat striatum assessed as de novo formation of [3H]-QUIN administered as intrastriatally measured after 2 hrs (reference value: 3.4 +/- 0.5%). In kind it is functional.
For data set [12], the target named is T4, 3-hydroxyanthranilate 3,4-dioxygenase (Rattus norvegicus, UniProt P46953).
T4 sequence (P46953 whole entry): T2 sequence (whole entry)
Briefly: Inhibition of 3-HAO in Sprague-Dawley rat brain homogenates using [1-14C]-3-HANA as substrate assessed as [14C]-QUIN production after 1 hr by liquid scintillation spectrometric analysis. Type of data set: tissue-based.

Usually inhibition stands for the change of the read-out against control, counted positive when it falls. As usually defined, the IC50 is the concentration needed to halve the response being measured.

On to `O=c1[nH]cnc2c1ccc[n+]2[O-]`, for which the inhibition in data set [1] was found to be 5.5%; in [2], 44.3%; in data set [3], 13%; in data set [4] it was 46.9%; in [5], 6.4%; in data set [6] it was 0.6%.
As to `Nc1c(C(=O)O)ccc(Cl)c1O`, the degraded at 24 h in [7] amounted to 62%.
In the case of `Cc1cc(C(=O)O)c(N)[n+]([O-])c1`, the inhibition in data set [1] amounted to 16.3%; in [2] it was 80.1%; in [3] it was 52.6%; in data set [4], 67.6%; in data set [5], 30.7%; in data set [6] it was 8.7%.
On to `CCc1cc(C)[n+]([O-])c(N)c1C(=O)O`, for which the inhibition was 8.5% in [1]; 20% in data set [2]; 10.9% in data set [3]; 23% in [4]; 3.1% in [5]; 2.8% in data set [6].
On to `Nc1c(C(=O)O)cc(Br)c[n+]1[O-]`, for which the inhibition in data set [1] is 22.9%; in data set [2] it was 89.1%; in data set [3], 67.2%; in [4], 83.7%; in [5] it was 55.2%; in data set [6] it was 14.5%.
`Cc1cc(C)[n+]([O-])c(N)c1C(=O)O`: the inhibition is 0.7% in [1]; 69.5% in [2]; 16.3% in [3]; 46.6% in data set [4]; 4.3% in data set [5]; -0.8% in data set [6].
`Cc1cc(C(=O)O)c(N)[n+]([O-])c1C`: the inhibition in data set [1] came out at 31.3%; in data set [2], 89.1%; in [3], 76.3%; in data set [4] it was 85.8%; in data set [5] it was 61.6%; in data set [6] it was 17.6%.
As for `CCc1ccc(C(=O)O)c(N)[n+]1[O-]`, the inhibition in [1] was 76.6%; in [2] it was 90.4%; in data set [3] it was 88.4%; in [4] it was 94.2%; in data set [5], 90.7%; in data set [6], 69.9%.
With `Cc1ccc(C#N)c(N)[n+]1[O-]`, the inhibition is -2.9% in data set [1]; 5.6% in data set [2]; -0.5% in data set [3]; 2.4% in [4]; -0.6% in [5]; -2.4% in data set [6].
For the compound `O=C(O)c1ccc(Cl)[n+]([O-])c1`, the inhibition is -5.4% in data set [1]; 30.4% in data set [2]; -3% in data set [3]; 37% in data set [4]; 11.4% in data set [5]; 2.9% in [6].
In the case of `Cc1cc(C(C)C)c(C(=O)O)c(N)[n+]1[O-]`, the inhibition amounted to 4% in [1]; 24.1% in data set [2]; 10.2% in data set [3]; 25.7% in [4]; 2.2% in data set [5]; 1.1% in data set [6].
Consider `Nc1c(C(=O)O)ccc[n+]1[O-]`, for which the inhibition in [1] was 74%; in data set [2], 94%; in data set [3] it was 88.8%; in data set [4] it was 92.4%; in [5] it was 84.9%; in data set [6], 47.6%. Besides, the remaining at 24 h, 100 µM in data set [8] amounted to 103%. In addition, in data set [9], the remaining at 24 h, 10 µM worked out at 101%.
As to `Cc1ccc(C(N)=O)c(N)[n+]1[O-]`, the inhibition in data set [1] was 1.7%; in data set [2], 20.1%; in [3], 1.3%; in data set [4], 11.5%; in data set [5], -2%; in data set [6], -1.1%.
With `Cc1ccc(C(=O)O)c(N)[n+]1[O-]`, the IC50 in [10] worked out at 1100 nM; in [12], 2800 nM. The inhibition in [1] was 85.5%; in [2], 94.4%; in data set [3] it was 92.3%; in data set [4] it was 96%; in [5], 94.1%; in [6], 76.9%. Further, in [8], the remaining at 24 h, 100 µM amounted to 102%. Further, the “[3H]-QUIN formed” value in data set [11] turned out to be 0.9%. Moreover, in data set [9], the remaining at 24 h, 10 µM is 101%.
For `Cc1cc(-c2ccccc2)c(C(=O)O)c(N)[n+]1[O-]`, the inhibition in [1] was -2.8%; in data set [2], 7.4%; in data set [3], 4.1%; in data set [4] it was 14.8%; in data set [5] it was 5.5%; in [6] it was 2.4%.
Turning to `Cc1ccc(C(=O)O)c(N)n1`, the inhibition in [1] was -3.6%; in data set [2], 24.8%; in [3] it was 0.7%; in data set [4] it was 42.5%; in data set [5], 5.1%; in data set [6] it was -2.1%.
For the compound `CC(C)c1cc(C(C)C)[n+]([O-])c(N)c1C(=O)O`, the inhibition in [1] is -5.4%; in data set [2] it was 10.6%; in data set [3], 1.5%; in [4] it was 14.6%; in data set [5], 2.9%; in data set [6], 1.2%.
Take `Nc1c(C(=O)O)ccc(Cl)[n+]1[O-]`: the inhibition in data set [1] is 72.9%; in data set [2], 95.2%; in [3], 89.6%; in [4], 95.2%; in data set [5], 84%; in [6], 67.3%.
As for `COC(=O)c1ccc(C)[n+]([O-])c1N`, the inhibition was -7.9% in [1]; 6% in [2]; -5.8% in data set [3]; 9.3% in [4]; 1.2% in data set [5]; 1% in data set [6].
Take `Nc1c(C(=O)O)cc(Cl)c[n+]1[O-]`: the inhibition in data set [1] was determined as 24.8%; in [2] it was 85.9%; in data set [3], 68.6%; in [4], 74.4%; in data set [5], 42.6%; in data set [6], 9.1%.
